Experimental findings from BindingDB's records for doi:10.1021/acs.biochem.5b00221 (Dalhousie University, 2015) are described below.

Structures are written as SMILES.

The assay deals with T1, Mandelate racemase (Pseudomonas putida, UniProt P11444).
T1 sequence (P11444 whole entry): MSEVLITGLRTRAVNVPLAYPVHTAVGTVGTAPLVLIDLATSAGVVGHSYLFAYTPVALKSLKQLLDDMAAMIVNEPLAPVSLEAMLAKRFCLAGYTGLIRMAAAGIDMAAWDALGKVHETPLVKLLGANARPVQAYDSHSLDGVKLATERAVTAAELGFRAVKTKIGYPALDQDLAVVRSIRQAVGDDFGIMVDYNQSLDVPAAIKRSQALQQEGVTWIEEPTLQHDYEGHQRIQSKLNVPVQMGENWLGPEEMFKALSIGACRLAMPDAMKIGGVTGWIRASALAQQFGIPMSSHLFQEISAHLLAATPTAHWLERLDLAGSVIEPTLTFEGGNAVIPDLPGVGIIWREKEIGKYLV
Nature of the assay: Circular Dichroism (CD) Based Assays. As to conditions: pH 7.5. Here is the method: MR activity was assayed using a CD-based assay by following the change in ellipticity of mandelate at 262 nm using a thermostated quartz cuvette with a 1-cm light path (unless otherwise indicated) as described by Sharp et al. Allassays (total volume of 2 mL) were conducted at 25 °C in Na+ HEPES buffer (0.1 M, pH 7.5) containing MgCl2 (3.3 mM), BSA [0.005% (w/v)], and (R)-mandelate as the substrate. The concentration of MR was determined from its absorbance at 280 nm using an extinction coefficient of 53400 M^−1 cm^−1.

`O=C(O)C(=O)CF` [3-fluoro-2-oxopropanoate] returned an inhibition constant Ki of 1.3 mM. In other words, the millimolar range.

In turn, `O=C(O)C(=O)C(=O)O` [Mesoxalate] showed a Ki of 1.8 mM.
